Results: patent US8952024B2, “Herbicidal pyrimidone derivatives” (E I du Pont de Nemours and Company, priority 2009, dated 2015)

How the values were obtained:
Assay type in all cases: in vivo
[1] = tested on: goosegrass (Eleusine indica); experiment: Test B pre-/postemergence plant response; details: Preemergence, 62 g ai/ha; scale 0 to 100, 0 no effect, 100 complete control
[2] = tested on: sunflower (common oilseed sunflower, Helianthus annuus); experiment: Test B pre-/postemergence plant response; details: Preemergence
Summary of the method: (§1)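 Ratings reflect visual comparison with untreated controls 13 to 15 days after application, from 0 (no effect) to 100 (complete control). Application was preemergence to seeded loam/sand soil or postemergence to 1- to 4-leaf plants, with compound in a non-phytotoxic, surfactant-containing solvent.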

[3] = tested on: giant foxtail (Setaria faberii); experiment: Test B pre-/postemergence plant response
Summary of the method: as §1

[4] = tested on: ragweed (common ragweed, Ambrosia elatior); experiment: Test B pre-/postemergence plant response
Summary of the method: as §1

[5] = tested on: Italian ryegrass (Lolium multiflorum); experiment: Test B pre-/postemergence plant response
Summary of the method: as §1

[6] = tested on: nightshade (eastern black nightshade, Solanum ptycanthum); experiment: Test B pre-/postemergence plant response; details: Preemergence
Summary of the method: as §1

[7] = tested on: galium (catchweed bedstraw, Galium aparine); experiment: Test B pre-/postemergence plant response; details: Preemergence
Summary of the method: as §1

[8] = tested on: umbrella sedge (Cyperus difformis); experiment: Test B flooded paddy test
Summary of the method: (§2)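 Visual scores run from 0 (no effect) to 100 (complete control), assigned by comparison with controls 13 to 15 days after treatment. Test compounds went straight into water standing 3 cm above the soil, around plants at the 2-leaf stage kept in a greenhouse.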

[9] = tested on: barnyardgrass (Echinochloa crus-galli); experiment: Test B flooded paddy test
Summary of the method: as §2

rice (Oryza sativa) = experiment: Test B flooded paddy test
Summary of the method: as §2

[10] = tested on: ducksalad (Heteranthera limosa); experiment: Test B flooded paddy test
Summary of the method: as §2

[11] = tested on: canarygrass (Phalaris minor); experiment: Test B postemergence plant response; details: Postemergence
Summary of the method: (§3)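 Visual ratings from 0 (no effect) to 100 (complete control), made against controls 13–15 days after treatment, kept in a greenhouse. Compounds were applied postemergence to potted plants at the 1- to 4-leaf stage (2–18 cm).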

[12] = tested on: chickweed (Stellaria media); experiment: Test B postemergence plant response; details: Postemergence
Summary of the method: as §3

[13] = tested on: winter barley (Hordeum vulgare); experiment: Test B postemergence plant response; details: Postemergence
Summary of the method: as §3

[14] = tested on: windgrass (Apera spica-venti); experiment: Test B postemergence plant response; details: Postemergence
Summary of the method: as §3

[15] = 31 g ai/ha, scale 0 to 100 (0 no effect, 100 complete control)
[16] = 62 g ai/ha, scale 0 to 100, 0 no effect, 100 complete control
[17] = 250 g ai/ha, Preemergence, 0 to 100 scale
[18] = Postemergence, 31 g ai/ha, scale 0 to 100 (0 no effect, 100 complete control)
[19] = Postemergence, 62 g ai/ha, scale 0 (no effect) to 100 (complete control), 13 to 15 days
[20] = Postemergence, 125 g ai/ha, visual rating after 13 to 15 days, scale 0 (no effect) to 100 (complete control)
[21] = Postemergence, 250 g ai/ha, scale 0 to 100
[22] = Preemergence, 31 g ai/ha, scale 0 to 100 (0 no effect, 100 complete control)
[23] = Preemergence, 62 g ai/ha, scale 0 to 100, 0 no effect, 100 complete control
[24] = Preemergence, 125 g ai/ha, 0 to 100 scale
[25] = 250 g ai/ha, flooded paddy test, visual rating on 0 to 100 scale (0 no effect, 100 complete control) after 13 to 15 days
[26] = Flood (flooded paddy test), 62 g ai/ha, scale 0 to 100, 0 is no effect, 100 is complete control, 13 to 15 days
[27] = 62 g ai/ha, scale 0 (no effect) to 100 (complete control), 13 to 15 days
[28] = 125 g ai/ha, visual rating after 13 to 15 days, scale 0 (no effect) to 100 (complete control)

**Q.** Which “Plant response rating, Goosegrass” value [1] does the source give for `Cc1cccc(-n2c(-c3ccccc3)ncc(C(=O)C3=C(O)CCCC3=O)c2=O)c1C` [Compound 27] here?
**A.** 98

**Q.** What about the “Plant response rating, Sunflower” value ([2]; 250 g ai/ha, 0 to 100 scale) of the same compound?
**A.** 100

**Q.** What about the “Plant response rating, Sunflower” value [2, 15] of the same compound?
**A.** 75

**Q.** And the “Plant response rating, Sunflower” value [2, 16]?
**A.** 75

**Q.** What about the “Sunflower plant response rating” value ([2]; 125 g ai/ha, 0 to 100 scale) of the same compound?
**A.** 90

**Q.** And the “Plant response rating, Foxtail, Giant” value [3, 17]?
**A.** 95

**Q.** And the “Plant response rating, Foxtail, Giant” value [3, 18]?
**A.** 65

**Q.** What about the “Plant response rating, Foxtail, Giant” value [3, 19] of the same compound?
**A.** 85

**Q.** And the “Plant response rating, Foxtail, Giant” value [3, 20]?
**A.** 90

**Q.** And the “Foxtail, Giant plant response rating” value [3, 21]?
**A.** 90

**Q.** And the “Plant response rating, Foxtail, Giant” value [3, 22]?
**A.** 0

**Q.** What about the “Plant response rating, Foxtail, Giant” value [3, 23] of the same compound?
**A.** 5

**Q.** And the “Foxtail, Giant plant response rating” value [3, 24]?
**A.** 85

**Q.** And the “Plant response rating, Ragweed” value [4, 17]?
**A.** 100

**Q.** And the “Plant response rating, Ragweed” value [4, 18]?
**A.** 85

**Q.** And the “Plant response rating, Ragweed” value [4, 19]?
**A.** 98

**Q.** And the “Plant response rating, Ragweed” value [4, 20]?
**A.** 100

**Q.** And the “Ragweed plant response rating” value [4, 21]?
**A.** 100

**Q.** What about the “Plant response rating, Ragweed” value [4, 22] of the same compound?
**A.** 85

**Q.** What about the “Plant response rating, Ragweed” value [4, 23] of the same compound?
**A.** 85

**Q.** What about the “Ragweed plant response rating” value [4, 24] of the same compound?
**A.** 100

**Q.** And the “Plant response rating, Ryegrass, Italian” value [5, 17]?
**A.** 0

**Q.** And the “Plant response rating, Ryegrass, Italian” value [5, 18]?
**A.** 0

**Q.** And the “Plant response rating, Ryegrass, Italian” value [5, 19]?
**A.** 5

**Q.** And the “Plant response rating, Ryegrass, Italian” value [5, 20]?
**A.** 5

**Q.** And the “Ryegrass, Italian plant response rating” value [5, 21]?
**A.** 10

**Q.** What about the “Plant response rating, Ryegrass, Italian” value [5, 22] of the same compound?
**A.** 0

**Q.** And the “Plant response rating, Ryegrass, Italian” value [5, 23]?
**A.** 0

**Q.** What about the “Ryegrass, Italian plant response rating” value [5, 24] of the same compound?
**A.** 0

**Q.** What about the “Plant response rating, Nightshade” value ([6]; 250 g ai/ha, 0 to 100 scale) of the same compound?
**A.** 100

**Q.** What about the “Plant response rating, Nightshade” value [6, 15] of the same compound?
**A.** 80

**Q.** And the “Plant response rating, Nightshade” value [6, 16]?
**A.** 98

**Q.** What about the “Nightshade plant response rating” value ([6]; 125 g ai/ha, 0 to 100 scale) of the same compound?
**A.** 100

**Q.** What about the “Plant response rating, Galium” value ([7]; 250 g ai/ha, 0 to 100 scale) of the same compound?
**A.** 95

**Q.** And the “Plant response rating, Galium” value [7, 15]?
**A.** 0

**Q.** And the “Plant response rating, Galium” value [7, 16]?
**A.** 50

**Q.** What about the “Galium plant response rating” value ([7]; 125 g ai/ha, 0 to 100 scale) of the same compound?
**A.** 85

**Q.** What about the “Plant response rating, Flood, Sedge, Umbrella” value [8, 25] of the same compound?
**A.** 85

**Q.** What about the “Plant response rating, Sedge, Umbrella” value [8, 26] of the same compound?
**A.** 75

**Q.** And the “Plant response rating, Flood, Barnyardgrass” value [9, 25]?
**A.** 40

**Q.** And the “Plant response rating, Barnyardgrass” value [9, 26]?
**A.** 0

**Q.** And the “Plant response rating, Flood, Rice” value (rice (Oryza sativa); [25])?
**A.** 0

**Q.** And the “Plant response rating, Rice” value (rice (Oryza sativa); [26])?
**A.** 0

**Q.** What about the “Plant response rating, Flood, Ducksalad” value [10, 25] of the same compound?
**A.** 85

**Q.** And the “Plant response rating, Ducksalad” value [10, 26]?
**A.** 75

**Q.** What about the “Plant response rating, Canarygrass” value [11, 15] of the same compound?
**A.** 10

**Q.** What about the “Plant response rating, Canarygrass” value [11, 27] of the same compound?
**A.** 10

**Q.** And the “Plant response rating, Canarygrass” value [11, 28]?
**A.** 30

**Q.** What about the “Canarygrass plant response rating” value ([11]; 250 g ai/ha, scale 0 to 100) of the same compound?
**A.** 50

**Q.** And the “Plant response rating, Chickweed” value [12, 15]?
**A.** 40

**Q.** What about the “Plant response rating, Chickweed” value [12, 27] of the same compound?
**A.** 45

**Q.** And the “Plant response rating, Chickweed” value [12, 28]?
**A.** 50

**Q.** What about the “Chickweed plant response rating” value ([12]; 250 g ai/ha, scale 0 to 100) of the same compound?
**A.** 80

**Q.** And the “Plant response rating, Barley” value [13, 15]?
**A.** 0

**Q.** What about the “Plant response rating, Barley” value [13, 27] of the same compound?
**A.** 0

**Q.** And the “Plant response rating, Barley” value ([13]; 125 g ai/ha, scale 0 to 100 (0 no effect, 100 complete control), 13 to 15 days)?
**A.** 10

**Q.** And the “Barley plant response rating” value ([13]; 250 g ai/ha, scale 0 to 100)?
**A.** 20

**Q.** And the “Plant response rating, Windgrass” value [14, 15]?
**A.** 10

**Q.** What about the “Plant response rating, Windgrass” value [14, 27] of the same compound?
**A.** 10

**Q.** And the “Plant response rating, Windgrass” value [14, 28]?
**A.** 50

**Q.** And the “Windgrass plant response rating” value ([14]; 250 g ai/ha, scale 0 to 100)?
**A.** 60
